The results in this text go back to PMC7913925, “Design and Evaluation of a Polypeptide That Mimics the Integrin Binding Site for EDA Fibronectin to Block Profibrotic Cell Activity” (International Journal of Molecular Sciences, 2021).

One data set has as its system Col3a1 mRNA. Nature of the data set: qRT-PCR Col3a1 mRNA. The format is cell-based, mouse. The procedure: (§1) Reverse transcription (RT) and real-time quantitative PCR (qRT-PCR) were used to assess ACTA2/Acta2, Col1a1, Col3a1, Fn1, Eda-Fn1, Mmp9, Tgfb1, Ltbp1, Hic5, and Mrtfa mRNA expressions. Custom PCR primers were designed in-house (Table 2) and then synthesized by BGI (Beijing, China). Cells were grown in 6-well culture plates and washed with phosphate buffered saline (PBS) before lysis with TRIzon Reagent (CWBio, Beijing, China) and total RNA purification according to the manufacturer’s protocol. Reverse transcription was carried using the TransScript First-Strand cDNA Synthesis SuperMix kit according to the manufacturer’s protocol (TransGen, Beijing, China), using the random primer method for the initiation of cDNA synthesis. Nuclease-free H2O replaced the RNA sample to serve as a negative control for the reverse transcription reaction. For qRT-PCR, 10 µL 2× TransStart Top Green qPCR SuperMix was added to each well of a 96-well PCR plate containing 0.4 µL forward primer, 0.4 µL reverse primer, […], and nuclease-free water to a total volume of 20 µL. The qRT-PCR reaction was completed using a CFX96 Real-Time PCR Detection System (Bio-Rad Laboratories, Hercules, CA, USA). Amplification used the following parameters: 94 °C for 30 s, followed by 40 cycles of 94 °C for 5 s, 55 °C for 15 s, 72 °C for 10 s, and then a dissociation stage (melt-curve). […]

Data set [1] deals with Mrtfa mRNA in NIH/3T3 fibroblasts. Nature of the data set: qRT-PCR Mrtfa mRNA. The format is cell-based, mouse. Conditions: 48 h, TGF-β1 10 ng/mL. The method, then:
as §1

Data set [2] has as its system vascular cell adhesion protein-1 (VCAM1). The data set can be described thus: Western blot total protein VCAM1. It is filed as cell-based. To be noted: 48 h TGF-β1, AF38Pep or TGF-β1+AF38Pep.
For data set [3], the system named is F-actin in NIH/3T3 fibroblasts. Nature of the data set: F-actin staining. The format is cell-based, mouse. To be noted: 48 h, TGF-β1 10 ng/mL, AF38Pep 10 µg/mL. The method, then: Cells were grown to 40% confluence in 8-well glass chamber slides (Nunc, Thermo Fisher Scientific), prior to growth arrest and treatment. Cells were washed with PBS before fixation in 4% paraformaldehyde for 10 min at room temperature. Next, cells were permeabilized with 0.1% (v/v) Triton X-100 in PBS for 10 min at room temperature. For visualization of ECM, cells were fixed with 100% ice-cold methanol for 8 min at −20 °C. Slides were washed with PBS and blocked with 1% goat serum (TBD Science, Tianjin, China) for 30 min before washing with 0.1% (w/v) BSA in PBS. Subsequently, slides were incubated with monoclonal mouse anti-α-SMA antibody (Sigma-Aldrich, 1:50) diluted in 0.1% BSA-PBS, overnight at 4 °C. After further wash steps, slides were incubated with goat anti-mouse IgG CF-488 secondary antibody (Abcam, 1:1000) in 0.1% BSA-PBS for 1 h at room temperature and under darkness. For F-actin visualization, after fixation and permeabilization; cells were incubated with phalloidin conjugated to FITC (Sigma-Aldrich) in 0.1% BSA-PBS, overnight at 4 °C. Cells were then mounted in DAPI Fluoromount-G (Thermo Fisher Scientific) and imaged using a Zeiss Axio Imager Z1 UV fluorescence microscope (Zeiss, Jena, Germany) and a Leica TCS SP5 laser scanning confocal microscope (Leica Biosystems, Baden-Württemberg, Germany).

For data set [4], the system named is integrin α4 protein (ITGA4). Nature of the data set: Western blot total protein ITGA4. The format is cell-based. Conditions: 48 h TGF-β1, AF38Pep or TGF-β1+AF38Pep.
The subject of data set [5] is human HFL1 lung fibroblast cells. Nature of the data set: Cytotoxicity/proliferation assay (CCK-8) HFL1. The format is cell-based. To be noted: TGF-β1 stimulated HFL1, over 72 h. The method, then:
HFL1 cells were cultured in Kaighn’s modified Ham’s F-12 (F-12K) medium (Sigma-Aldrich) containing NaHCO3 and HEPES buffered to pH 7. Cells were grown to confluence in T75 culture flasks in the presence of 10% fetal bovine serum (FBS; Gibco, Thermo Fisher Scientific, Waltham, MA, USA). HFL1 cells were subcultured using 0.05% trypsin at a ratio of 1:3. NIH/3T3 cells were cultured in Dulbecco’s Modified Eagle Medium (DMEM; HyClone, Thermo Fisher Scientific) containing 100 U/mL penicillin and 100 μg/mL streptomycin. Cells were grown to confluence in T75 culture flasks in the presence of 10% FBS. NIH/3T3 cells were subcultured using 0.05% trypsin/EDTA at a ratio of 1:3. All cells were maintained at 37 °C and 5% CO2, and growth medium was replenished every 3 days until experimentation. Cells were growth-arrested in serum-free medium for 48 h before experiments, and all experiments were performed under serum-free conditions using cells between passages 3 and 8.
Cells were seeded into 12-well culture plates at a density of 2.5 × 10^4 and when cultures reached 50% confluence, the culture medium was replaced with fresh serum-free F12K or serum-free DMEM/F12 for 48 h (growth arrest). […] Absorbance was measured at 450 nm wavelength using a Bio-Rad optical plate reader.

The next data set deals with pro-MMP9. Nature of the data set: Gelatinase zymography pro-MMP9. The format is cell-based, mouse. To be noted: 48 h, TGF-β1 10 ng/mL, AF38Pep 10 µg/mL, conditioned medium. The method, then:
Conditioned media were collected from cells incubated with serum-free medium (SFM) alone, SFM containing 10 ng/mL TGF-β1, SFM containing 10 µg/mL AF38Pep, or SFM containing both 10 ng/mL TGF-β1 and 10 µg/mL AF38Pep. Conditioned medium was concentrated 10× by filtrating spin columns (Amicon Ultra-4 10 kDa MWCO, Merck Millipore) and protein was quantified by Micro BCA Protein Assay Kit (Thermo Fisher Scientific). A 1.5 mm thick 10% nonreducing acrylamide gel containing gelatin was prepared and 10 µg of sample in 5 × nonreducing buffer was loaded into the gel lanes. The gel was run at 100 V until the protein entered the stacking gel layer, then the voltage was increased to 150 V until the marker achieved resolved band separation. The gels were then washed twice for 30 min using wash buffer to remove SDS and renature the enzymes. Gels were further rinsed for 5–10 min in incubation buffer at 37 °C with agitation to activate the gelatinase reaction. Fresh incubation buffer was added, and the gels were incubated overnight at 37 °C. Gels were stained with staining solution containing Coomassie blue for between 30 min to 1 h, before rinsing with ddH2O and subsequent incubation with de-stain solution until bands could be observed. The gels were transferred to 2% acetic acid and rehydrated overnight for imaging by scanner.

Bridges are numbered along the chain shown (N, C = ends). Where no end group is shown, it is not given here.

As to “VMPYISTTPAKPCTSENCGNSWYGGFKSKNENKIYFIN (disulfide 13-18 (inferred)) [AF38Pep]”, the “collagen type III mRNA expression” value with Col3a1 mRNA (72 h, TGF-β1 + AF38Pep) is recorded as “all inhibited”; in the data set on Col3a1 mRNA (by 48 h, vs TGF-β1-only), “significant attenuation”. Besides, the “MRTFA mRNA expression” value in data set [1] is reported as “attenuated”. In data set [2], the VCAM1 total protein entry was “remained unaffected”. In addition, in data set [3], the F-actin fiber assembly entry was “cellular actin reassembly into F-actin fibers still occurred”. Moreover, in data set [4], the ITGA4 total protein result is reported as “remained unaffected”. Further, the cytotoxicity/proliferation result in data set [5] is “not detrimental to cell numbers”. The pro-MMP9 gelatinase activity result in the data set on pro-MMP9 is given as “suppressed activity levels”.
